Here are results for 1 compound from patent US20200261534A1, “NEW TREATMENTS OF MULTIPLE MYELOMA” (priority 2017, published 2020).

A word on the IC50: it is the concentration at which inhibition is half-maximal.

The structures appear in SMILES notation. Where two headings read alike, the source gives them in different places. Starred links: 1 amine or outer side, 2 acyl side, 3 side chain; linkers in the order of their positions; H or OH if unused. Positions of bridges follow the written chain, without caps; N, C: chain ends. Non-standard residues stand in square brackets, D forms with d. Residues, ends and D or L forms follow the SMILES beside them. ξ: configuration not given here. ξαMeNle(6-ylidene) = CC(CCCC=[*:3])(N[*:1])C(=O)[*:2]; X1 = CC(CCCCCCC=[*:3])(N[*:1])C(=O)[*:2]

Experiment [1] relates to HL-60, promyeloblast (acute myelocytic leukemia, AML). As to the kind of experiment: MTT viability assay, HL-60. In kind it is cell-based. The note with it: HL-60. As for the experimental part: (§1) HL-60, promyeloblast (acute myelocytic leukemia, AML), ECACC: 98070106 […] During the amplification step and the assays adherent cells were rinsed with DPBS (Dulbecco's Phosphate Buffered Saline, Sigma D1283) three times and afterward treated for 5 minutes with trypsin ([…]) (Gibco-BRL, 15400054) in solution of DPBS at 37° C., and, once detached, transferred in the culturing medium. No-adherent cells were centrifuged and transferred in the culturing medium. Cells were counted in a Neubauer chamber after labelling with Tripan-Blue. […] Cells were seeded at a density of 10000 cells/well in 100 μl of medium in 96 well plates. […] Controls are the untreated cells. Each experiment was performed in triplicate. Cells were incubated with the compounds at the indicated concentrations during 24-72 h in incubator under CO2 atmosphere at 37° C. […] Stock solution of MTT (475989 Calbiochem) was 5 mg/ml in PBS. 1×.10 μl/well of MTT solution were added and the plate was incubated for 3-4 hr. […] Plates were incubated for 16 h at room temperature under orbital shaking. Absorbance at 570 nm was finally measured. […] The dose/response curve was fitted through the sigmoidal equation dose-response (variable slope) and the IC50 values were calculated as follow: Y=Bottom+(Top−Bottom)/(1+10^{[(LogIC50−X)*HillSlope]},

Experiment [2] concerns NCI-H128, epithelial (small cell lung cancer). The experiment can be described thus: MTT viability assay, NCI-H128. The note with it: NCI-H128; MTT; 24-72 h; Table 12; read-out: IC50 values. Type of experiment: cell-based. The protocol:
as §1, with “NCI-[…], epithelial (small cell lung cancer), ATCC: HTB-120TM” for “HL-60, promyeloblast (acute myelocytic leukemia, AML), ECACC: 98070106”, “10,000” for “10000”, “Y=Bottom+(Top−Bottom)/(1+10^{[(LogIC50−X)*HillSlope]},” left out
(In general: Tetrazolium dyes change colour on reduction, which living cells bring about.)

As to `CC[C@H](C)[C@H](NC(=O)[C@H](Cc1ccc(O)cc1)NC(=O)[C@H](C)NC(=O)C1(C)CCCC=CCCCCCCC(C)(NC(=O)[C@H](CCCCN)NC(=O)[C@@H]2CCCN2C(=O)[C@H](C)N)C(=O)N[C@@H](C(C)C)C(=O)N[C@@H]([C@@H](C)CC)C(=O)N[C@@H](CC(C)C)C(=O)N[C@@H](CCCCN)C(=O)N[C@@H](CCCCN)C(=O)N[C@@H](C)C(=O)N1)C(=O)N[C@@H](CC(C)C)C(=O)N[C@@H](CO)C(=O)O` (stereo partly drawn) [S09, APKXVILKKAXAYILS—OH] (H-APK[X1]VILKKA[ξαMeNle(6-ylidene)]AYILS-OH; staple 4-11; N-terminus assumed), the IC50 in experiment [1] (MTT, incubation 24-72 h, Table 3, read-out: IC50 values) is 3.5 ± 0.2 µM; in experiment [1] (same protocol as Example 2, Table 6, read-out: Compound (IC50)) it was 3.5 ± 0.2 µM; in experiment [2], 3000 ± 1000 nM.
